For data set [1], the system named is PFSK (primitive neuroectodermal tumors/PNET). Description: In vivo antitumoral activity, PFSK primitive neuroectodermal tumor (PNET) xenograft. Set-up: species or system nude athymic mice (human tumor xenograft). The conditions noted are these: 30 mg/kg i.v., q4dx4. As to the method: (§1) Exponentially growing tumor cells were injected s.c. into nude athymic mice. The number of tumor cells was previously chosen by a growth curve. […] Animals were housed under a light-dark cycle, keeping temperature and humidity constant. Parameters of the animal rooms were assessed as follows: 22±2° C. temperature, 55±10% relative humidity, about 15-20 filtered air changes/hour and 12 hour circadian cycle of artificial light (7 a.m., 7 p.m.). At request, the environmental conditions were monitored and the data are retained in Animal Housing Archives. Drinking water was supplied ad libitum. Each mouse was offered daily a complete pellet diet (GLP 4RF21, Mucedola) throughout the study. The analytical certificates of animal food and water are retained at Sigma-Tau premises. All animals were weighed before starting the experiment and were subdivided into the different dosage groups.
(§2) Tumor growth was followed by biweekly measurements of tumor diameters with a Vernier caliper. Tumor volume (TV, mm^3) was calculated as: [length (mm)×width (mm)^2]/2, where the width and the length are the shortest and the longest diameters of each tumor, respectively.
(§3) The efficacy of the drug treatment was assessed as tumor volume inhibition (TVI %) in treated versus control mice, calculated as: 100−[(mean tumor volume of treated animals/mean tumor volume of control animals)×100].

The subject of data set [2] is TE-671 (rhabdomyosarcoma). The data set is described as follows: In vivo antitumoral activity, TE-671 rhabdomyosarcoma xenograft. Set-up: species or system nude athymic mice (human tumor xenograft). To be noted: 30 mg/kg i.v., q4dx4. As to the method:
as §1, §2, §3

Data set [3] concerns human pediatric tumor xenograft models. Description: In vivo antitumoral activity on different pediatric tumor xenograft models (overall). Details: species or system nude athymic mice (human tumor xenograft). The conditions noted are these: all models, compared with CPT-11; 30 mg/kg i.v., q4dx4. As for the experimental part:
(§4) The antitumor effect was evaluated against different human pediatric tumor models: SK-ND-AS (neuroblastoma); PSFK (primitive neuroectodermal tumors/PNET); TE-671 (rhabdomyosarcoma). ST 1968 was evaluated in comparison to CPT-11 (irinotecan) by intravenously delivery of 30 mg/10 ml/kg for ST1968 and 50 mg/10 ml/kg for CPT-11 according to the schedule q4dx4.
(§5) Exponentially growing tumor cells were injected s.c. into nude athymic mice. The number of tumor cells was previously chosen by a growth curve. Mice were housed inside cages of makrolon (33.2×15×13 cm) with stainless steel cover-feed and sterilized and dust-free bedding cobs. Animals were housed under a light-dark cycle, keeping temperature and humidity constant. Parameters of the animal rooms were assessed as follows: 22±2° C. temperature, 55±10% relative humidity, about 15-20 filtered air changes/hour and 12 hour circadian cycle of artificial light (7 a.m., 7 p.m.). At request, the environmental conditions were monitored and the data are retained in Animal Housing Archives. Drinking water was supplied ad libitum. […]
Tumor growth was followed by biweekly measurements of tumor diameters with a Vernier caliper. Tumor volume (TV, mm^3) was calculated as: [length (mm)×width (mm)^2]/2, where the width and the length are the shortest and the longest diameters of each tumor, respectively. […]

Data set [4] is described as follows: Toxicity of the drug treatments in tumor-bearing mice. The conditions noted are these: treatment i.v., q4dx4. The data set is classed as in vivo, nude athymic mice. As to the method: as §4, §5
The toxicity of the drug treatments was determined as: body weight loss percent (% BWL max)=100−(mean BWday x/mean BWday 1×100), where BWx is the mean BW at the day of maximal loss during the treatment and BW1 is the mean BW on the 1st day of treatment.

In the next data set the test system is SK-N-AS (neuroblastoma). The data set is described as follows: In vivo antitumoral activity, SK-N-AS neuroblastoma xenograft. Set-up: species or system nude athymic mice (human tumor xenograft). The conditions noted are these: SK-N-AS xenograft s.c. in nude mice; 30 mg/kg i.v., q4dx4. As to the method:
as §1, §2, §3

The source of these data is patent US8829021B2, “Treatment of pediatric tumors” (Sigma-Tau Industrie Farmaceutiche Riunite S.p.A., priority 2007, dated 2014).

Values joined by “and” are separate entries in the source; they are usually repeats but may differ in a detail not shown here. Equal values may be shown once.

For the compound `CC[C@@]1(O)C(=O)OCc2c1cc1n(c2=O)Cc2c-1nc1ccccc1c2/C=N\OCCN` [ST1968, 7-(2-amino)ethoxyiminomethylcamptothecin], the “TVI % (tumor volume inhibition)” value in data set [1] (PFSK xenograft s.c. in nude mice, 30 mg/kg) was 99% and 100%; in data set [2] (TE-671 xenograft s.c. in nude mice, 30 mg/kg), 100% and 99%; in the data set on SK-N-AS (neuroblastoma), 98%. In addition, the “complete responses (in words)” value in data set [1] (PNET model) and in data set [2] (rhabdomyosarcoma model) was “high rate of complete responses” each time. Further, in data set [3], the “antitumor activity / complete tumor regressions (in words)” value is reported as “appreciable rate of complete tumor regressions in all models”. For the same compound, in data set [4], the “tolerability / signs of acute or delayed toxicity (in words)” value is on record as “generally well tolerated by mice with no signs of acute or delayed toxicity”.
